From patent US8431556B2, “C-21-keto lupane derivatives preparation and use thereof” (Vertex Pharmaceuticals Incorporated, priority 2008, dated 2013)
Like-named read-outs stand apart in the source and are kept apart here.

System: HIV-1 (HIVIIIB)
Test: HIV-1 replication in MT2 cell line with and without 30% human serum (viral RT activity in supernatant)
Type: cell-based
Conditions: Human immunodeficiency virus 1, MT2, MT-2 cells, average IC50 if tested more than once
Experimental: HIV-1 Replication in MT2 cell line with and without 30% human serum: The cells are infected at a Multiciplicity of Infection (MOI) of 0.5 for 3 h and then washed twice with complete media to remove residual virus. Cells are then resuspended at 0.5×10^6/ml in complete medium (RPMI, 10% FBS, 1% sodium pyruvate), and seeded into 96-well plates (6.25×10^4/well). The cells are cultured in the presence or absence of various concentrations of test compounds in serial dilutions for 3 days at 37° C. The test compounds are serially diluted in complete medium supplemented or not with 30% human serum. After 3 days, 100 μL of cultured medium with cells are replaced with 120 μL of freshly diluted test compounds in complete medium containing or not 30% Human serum. The level of HIV-1 replication is determined at days 5 after infection by the presence of viral RT activity in harvested supernatant fluid. The IC50 and IC90 values for the virus replication are determined by using GRAPHPAD PRISM software.
The IC50 of the compounds tested in accordance with the HIV replication activity assay MT-2 (HIVIIIB) are represented in Table 4 (without HS) and Table 5 (with 30% HS)

[1] = with 30% human serum, read-out: MT-2 (HIVIIIB) with 30% HS IC50 range
[2] = without HS, read-out: MT-2 (HIVIIIB) IC50 range

Row | SMILES | IC50 [1] [nM] | IC50 [2] [nM]
1 | CC(C)C1=C2C3CCC4[C@@]5(C)CC[C@H](OC(=O)CC(C)(C)C(=O)O)C(C)(C)C5CC[C@@]4(C)[C@]3(C)CC[C@@]2(C(=O)Nc2ccccc2C(C)C)CC1=O (stereo partly drawn) [9-87, 3β-O-(3′,3′-Dimethylsuccinyl)-21-oxolup-18-en-28-oic acid N-2-isopropyl-phen-1-yl acetamide] | 200 to 999 | 
2 | CC(C)C1=C2C3CCC4[C@@]5(C)CC[C@H](OC(=O)CC(C)(C)C(=O)O)C(C)(C)C5CC[C@@]4(C)[C@]3(C)CC[C@@]2(C(=O)N2Cc3ccccc3C2)CC1=O (stereo partly drawn) [9-92, 3β-O-(3′,3′-Dimethylsuccinyl)-21-oxolup-18-en-28-oic acid N-(1,3-dihydro-isoindol-2-yl)-acetamide] | < 199 | 
3 | CC(C)C1=C2[C@H]3CC[C@@H]4[C@@]5(C)CC[C@H](OC(=O)CC(C)(C)C(=O)O)C(C)(C)[C@@H]5CC[C@@]4(C)[C@]3(C)CC[C@@]2(C(=O)N2CCNCC2)CC1=O [9-28, 3β-O-(3′,3′-Dimethylsuccinyl)-21-oxolup-18-en-28-oic acid N-piperazinyl-acetamide] | < 199 | 
4 | CC(C)C1=C2[C@H]3CC[C@@H]4[C@@]5(C)CC[C@H](OC(=O)CC(C)(C)C(=O)O)C(C)(C)[C@@H]5CC[C@@]4(C)[C@]3(C)CC[C@@]2(C(=O)N2CCNC(=O)C2)CC1=O [9-37, 3β-O-(3′,3′-Dimethylsuccinyl)-21-oxolup-18-en-28-oic acid N-4-piperazi-2-one acetamide] | < 199 | 
5 | CC(C)OC(=O)NC1CCN(C(=O)[C@@]23CC[C@]4(C)[C@H](CC[C@@H]5[C@@]6(C)CC[C@H](OC(=O)CC(C)(C)C(=O)O)C(C)(C)[C@@H]6CC[C@]54C)C2=C(C(C)C)C(=O)C3)CC1 [9-68, 3β-O-(3′,3′-Dimethylsuccinyl)-21-oxolup-18-en-28-oic acid N-(4-aminocarboxylic acid isopropyl ester-1-piperidine)-acetamide] | < 199 | 
6 | CC(C)C1=C2[C@H]3CC[C@@H]4[C@@]5(C)CC[C@H](OC(=O)CC(C)(C)C(=O)O)C(C)(C)[C@@H]5CC[C@@]4(C)[C@]3(C)CC[C@@]2(C(=O)Nc2ccccc2)CC1=O [9-10, 3β-O-(3′,3′-Dimethylsuccinyl)-21-oxolup-18-en-28-oic acid N-benzamide] | < 199 | 
7 | CC(C)C1=C2[C@H]3CC[C@@H]4[C@@]5(C)CC[C@H](OC(=O)CC(C)(C)C(=O)O)C(C)(C)[C@@H]5CC[C@@]4(C)[C@]3(C)CC[C@@]2(C(=O)N2CCC(F)(F)CC2)CC1=O [9-94, 3β-O-(3′,3′-Dimethylsuccinyl)-21-oxolup-18-en-28-oic acid N-4,4-difluoro-piperidine acetamide] | < 199 | 
8 | CC(C)C1=C2C3CCC4[C@@]5(C)CC[C@H](OC(=O)CC(C)(C)C(=O)O)C(C)(C)C5CC[C@@]4(C)[C@]3(C)CC[C@@]2(C(=O)NC[C@H]2CCCN2)CC1=O (stereo partly drawn) [9-81, 3β-O-(3′,3′-Dimethylsuccinyl)-21-oxolup-18-en-28-oic acid N-((R)-1-pyrrolidin-2-ylmethyl)-acetamide] | < 199 | 
9 | CC(C)C1=C2[C@H]3CC[C@@H]4[C@@]5(C)CC[C@H](OC(=O)CC(C)(C)C(=O)O)C(C)(C)[C@@H]5CC[C@@]4(C)[C@]3(C)CC[C@@]2(C(=O)NC(C)C(F)(F)F)CC1=O (stereo partly drawn) [9-75, 3β-O-(3′,3′-Dimethylsuccinyl)-21-oxolup-18-en-28-oic acid N-(2,2,2-trifluoro-1-methyl-ethyl)-acetamide] | < 199 | 
10 | CC(C)C1=C2[C@H]3CC[C@@H]4[C@@]5(C)CC[C@H](OC(=O)CC(C)(C)C(=O)O)C(C)(C)[C@@H]5CC[C@@]4(C)[C@]3(C)CC[C@@]2(C(=O)Nc2nccc(C(F)(F)F)n2)CC1=O [9-72, 3β-O-(3′,3′-Dimethylsuccinyl)-21-oxolup-18-en-28-oic acid N-4-trifluoro-pyrimidin-2-yl-acetamide] | < 199 | 
11 | CC(C)C1=C2[C@H]3CC[C@@H]4[C@@]5(C)CC[C@H](OC(=O)CC(C)(C)C(=O)O)C(C)(C)[C@@H]5CC[C@@]4(C)[C@]3(C)CC[C@@]2(C(=O)NCc2ccccc2Cl)CC1=O [9-12, 3β-O-(3′,3′-Dimethylsuccinyl)-21-oxolup-18-en-28-oic acid N-2-chloro-benzylamide] | < 199 | 
12 | Cc1cc(NC(=O)[C@@]23CC[C@]4(C)C(CCC5[C@@]6(C)CC[C@H](OC(=O)CC(C)(C)C(=O)O)C(C)(C)C6CC[C@]54C)C2=C(C(C)C)C(=O)C3)no1 (stereo partly drawn) [9-91, 3β-O-(3′,3′-Dimethylsuccinyl)-21-oxolup-18-en-28-oic acid N-(5-methyl-isoxazol-3-yl)-acetamide] | < 199 | 
13 | Cc1ccccc1NC(=O)[C@@]12CC[C@]3(C)[C@H](CC[C@@H]4[C@@]5(C)CC[C@H](OC(=O)CC(C)(C)C(=O)O)C(C)(C)[C@@H]5CC[C@]43C)C1=C(C(C)C)C(=O)C2 [9-47, 3β-O-(3′,3′-Dimethylsuccinyl)-21-oxolup-18-en-28-oic acid N-2-methyl-phen-1-yl acetamide] | < 199 | 
14 | COC(=O)N1CCN(C(=O)[C@@]23CC[C@]4(C)[C@H](CC[C@@H]5[C@@]6(C)CC[C@H](OC(=O)CC(C)(C)C(=O)O)C(C)(C)[C@@H]6CC[C@]54C)C2=C(C(C)C)C(=O)C3)CC1 [9-40, 3β-O-(3′,3′-Dimethylsuccinyl)-21-oxolup-18-en-28-oic acid N-1-acetyl-piperazine-4-carboxylic acid methyl ester] | < 199 | 
15 | CC(C)C1=C2[C@H]3CC[C@@H]4[C@@]5(C)CC[C@H](OC(=O)CC(C)(C)C(=O)O)C(C)(C)[C@@H]5CC[C@@]4(C)[C@]3(C)CC[C@@]2(C(=O)N2CCOCC2)CC1=O [9-7, 3β-O-(3′,3′-Dimethylsuccinyl)-21-oxolup-18-en-28-oic acid N-morpholyl acetamide] | < 199 | 
16 | CC(C)C1=C2C3CCC4[C@@]5(C)CC[C@H](OC(=O)CC(C)(C)C(=O)O)C(C)(C)C5CC[C@@]4(C)[C@]3(C)CC[C@@]2(C(=O)Nc2ncc3ccccc3n2)CC1=O (stereo partly drawn) [9-89, 3β-O-(3′,3′-Dimethylsuccinyl)-21-oxolup-18-en-28-oic acid N-quinazolin-2-yl acetamide] | < 199 | 
17 | CC(C)C1=C2[C@H]3CC[C@@H]4[C@@]5(C)CC[C@H](OC(=O)CC(C)(C)C(=O)O)C(C)(C)[C@@H]5CC[C@@]4(C)[C@]3(C)CC[C@@]2(C(=O)NC(C)(C)C2CC2)CC1=O [9-73, 3β-O-(3′,3′-Dimethylsuccinyl)-21-oxolup-18-en-28-oic acid N-(1-cyclopropyl-1-methyl-ethyl)-acetamide] | < 199 | 
18 | CNC(=O)[C@@]12CC[C@]3(C)[C@H](CC[C@@H]4[C@@]5(C)CC[C@H](OC(=O)CC(C)(C)C(=O)O)C(C)(C)[C@@H]5CC[C@]43C)C1=C(C(C)C)C(=O)C2 [9-2, 3β-O-(3′,3′-Dimethylsuccinyl)-21-oxolup-18-en-28-oic acid N-methylamide] |  | < 199
19 | CC(C)C1=C2[C@H]3CC[C@@H]4[C@@]5(C)CC[C@H](OC(=O)CC(C)(C)C(=O)O)C(C)(C)[C@@H]5CC[C@@]4(C)[C@]3(C)CC[C@@]2(C(=O)NCc2ccccc2)CC1=O [9-1, 3β-O-(3′,3′-Dimethylsuccinyl)-21-oxolup-18-en-28-oic acid N-benzylamide] |  | < 199
20 | Cc1ccnc(NC(=O)[C@@]23CC[C@]4(C)[C@H](CC[C@@H]5[C@@]6(C)CC[C@H](OC(=O)CC(C)(C)C(=O)O)C(C)(C)[C@@H]6CC[C@]54C)C2=C(C(C)C)C(=O)C3)n1 [9-56, 3β-O-(3′,3′-Dimethylsuccinyl)-21-oxolup-18-en-28-oic acid N-4-methyl-pyrimidin-2-yl-acetamide] | < 199 | 
21 | CC(C)NC(=O)NC1CCN(C(=O)[C@@]23CC[C@]4(C)[C@H](CC[C@@H]5[C@@]6(C)CC[C@H](OC(=O)CC(C)(C)C(=O)O)C(C)(C)[C@@H]6CC[C@]54C)C2=C(C(C)C)C(=O)C3)CC1 [9-44, 3β-O-(3′,3′-Dimethylsuccinyl)-21-oxolup-18-en-28-oic acid N-[(4-amino-N′-isopropylureido)-1-piperidine]-acetamide] | < 199 | 
22 | CCOC(=O)NC1CCN(C(=O)[C@@]23CC[C@]4(C)[C@H](CC[C@@H]5[C@@]6(C)CC[C@H](OC(=O)CC(C)(C)C(=O)O)C(C)(C)[C@@H]6CC[C@]54C)C2=C(C(C)C)C(=O)C3)CC1 [9-67, 3β-O-(3′,3′-Dimethylsuccinyl)-21-oxolup-18-en-28-oic acid N-(4-aminocarboxylic acid ethyl ester-1-piperidine)-acetamide] | < 199 | 
23 | CC(C)C1=C2[C@H]3CC[C@@H]4[C@@]5(C)CC[C@H](OC(=O)CC(C)(C)C(=O)O)C(C)(C)[C@@H]5CC[C@@]4(C)[C@]3(C)CC[C@@]2(C(=O)NCC2CC2)CC1=O [9-69, 3β-O-(3′,3′-Dimethylsuccinyl)-21-oxolup-18-en-28-oic acid N-cyclopropylmethyl acetamide] | < 199 | 
24 | CC(C)C1=C2C3CCC4[C@@]5(C)CC[C@H](OC(=O)CC(C)(C)C(=O)O)C(C)(C)C5CC[C@@]4(C)[C@]3(C)CC[C@@]2(C(=O)NC[C@@H]2CCCN2)CC1=O (stereo partly drawn) [9-82, 3β-O-(3′,3′-Dimethylsuccinyl)-21-oxolup-18-en-28-oic acid N-((S)-1-pyrrolidin-2-ylmethyl)-acetamide] | < 199 | 
